A short description of data set [1]: in vitro. To be noted: human.
Data set [2] has as its system HSV-2. Kind of data set: microbe, parasite or virus in culture. To be noted: Human alphaherpesvirus 2, RPE, 72 h, read-out: EC50-1 (CTG assay).
Data set [3] relates to HSV-2.
In data set [4] the test system is HSV-2. Description: HSV-2 production in RPE cells, plaque assay on A549-Npro cells. In kind it is cell-based, herpes simplex virus type 2. The conditions noted are these: 0.12 μM obatoclax, 0.04 μM emetine, 0.37 μM niclosamide, 0.37 μM ganciclovir; titrated on A549-Npro cells.
In data set [5] the test system is HIV-1. The conditions noted are these: HIV-1, TZM-bl cells, 24 h.
The subject of data set [6] is HIV-1. Kind of data set: microbe, parasite or virus in culture. The conditions noted are these: Human immunodeficiency virus 1, TZM-bl, 24 h, read-out: EC50-2 (reporter protein expression).
The nature of data set [7]: Toxicity in TZM-bl cells, Cell Tox Green (CTxG) assay (CC50). To be noted: human, mock-infected TZM-bl cells.
Data set [8] deals with FLUAV-GFP.
Data set [9] relates to FLUAV-GFP. Kind of data set: microbe, parasite or virus in culture. To be noted: Influenza A virus, RPE, read-out: Viability of FLUAV-GFP-infected cells (%).
Data set [10] relates to FLUAV-GFP. Kind of data set: microbe, parasite or virus in culture. To be noted: Influenza A virus, RPE, 24 h, read-out: EC50-2 (reporter protein expression).
The subject of data set [11] is HMPV-GFP. Description: microbe, parasite or virus in culture. The conditions noted are these: human metapneumovirus, RPE, 96 h, read-out: EC50-2 (reporter protein expression).
The subject of data set [12] is EV1. Description: EV1 production in RPE cells, plaque assay on A549-Npro cells. Format: cell-based, echovirus 1. To be noted: obatoclax 0.37 μM, emetine 0.12 μM, homoharringtonine 0.12 μM; titrated on A549-Npro cells.
Data set [13] concerns FLUAV. Description: microbe, parasite or virus in culture. Format: cell-based. To be noted: Influenza A virus, RPE, 24 h, read-out: EC50-1 (CTG assay).
In data set [14] the test system is RVFV-RFP. Description: microbe, parasite or virus in culture. To be noted: Rift Valley fever virus, RPE, 24 h, read-out: EC50-2 (reporter protein expression).
Data set [15] deals with RVFV-RFP. To be noted: RPE cells, fluorescent microscopy and CTG assay.
The subject of data set [16] is EV1.
The test system of data set [17] is EV1. Kind of data set: microbe, parasite or virus in culture. To be noted: Enterovirus B, RPE, 48 h, read-out: EC50-1 (CTG assay).
Data set [18] can be described thus: Drug combination experiment: viability of mock-infected RPE cells (CTG). To be noted: human.
The subject of data set [19] is RVFV. Kind of data set: microbe, parasite or virus in culture. To be noted: Rift Valley fever virus, RPE, 24 h, read-out: EC50-1 (CTG assay). Format: cell-based.
Data set [20] has as its system HMPV-GFP.

Like-named read-outs stand apart in the source and are kept apart here.

Take `O=C(Nc1ccc([N+](=O)[O-])cc1Cl)c1cc(Cl)ccc1O` [Niclosamide]: the CC50 in data set [1] turned out to be 1.31 ± 0.02 µM. In addition, the half-maximal effective concentration (EC50) (commonly the concentration needed to bring the measured effect to its halfway point) in data set [2] was 0.43 ± 0.04 µM. Further, in data set [3], the “Initial screening: rescue of HSV-2-infected cells” value is “rescued cells from virus-mediated death” and the “SI (CC50/EC50)” value is given as 3. For the same compound, in data set [4], the “HSV-2 production in RPE cells (plaque assay)” value (from here on “HSV-2 production in RPE cells”) was “lowered the production of HSV-2”.
Consider `Cc1c(-c2ccc(-c3ccccc3F)cc2)nc2ccc(F)cc2c1C(=O)O` [Brequinar], for which the “SI (CC50/EC50)” value in [5] and in data set [5] (listed as brequinar) was greater than 750 throughout. The EC50 in data set [6] is 0.04 ± 0.01 µM. This compound showed a CC50 at 24 h in data set [7] greater than 30 µM.
Regarding `COC1=CC(c2cc3ccccc3[nH]2)=N/C1=C\c1[nH]c(C)cc1C` [Obatoclax], in data set [8], the “Initial screening: FLUAV-mediated GFP expression” value is reported as “lowered GFP expression without detectable cytotoxicity” and the “SI (CC50/EC50)” value was 31. The EC50 in [2] is 0.1 ± 0.02 µM. Further, in data set [9], the viability (as a rule, a per cent measure of how many cells are alive, often set against a control) at 0.01 µM came out at 60%; the viability at 0.02 µM stood at 72%; the viability at 0.05 µM came to 80%; the viability at 0.15 µM was 90%. Besides, the viability at 0.44 µM in data set [9] worked out at 76%. Moreover, the EC50 in data set [10] was determined as 0.1 ± 0.01 µM. Moreover, in [3], the “Initial screening: rescue of HSV-2-infected cells” value is given as “rescued cells from virus-mediated death” and the “SI (CC50/EC50)” value amounted to 12. The EC50 in data set [11] is 0.12 ± 0.02 µM. Further, in [12], the “EV1 production in RPE cells (plaque assay)” value (“EV1 production in RPE cells” below) is “lowered the production of EV1”. For the same compound, in data set [13], the half-maximal effective concentration (EC50) was determined as 0.04 ± 0.01 µM. For the same compound, the EC50 in data set [14] was found to be 0.32 ± 0.09 µM. In data set [15], the “RVFV-mediated RFP expression” value is listed as “inhibited RVFV-mediated RFP expression at non-cytotoxic concentrations”. In data set [4], the “HSV-2 production in RPE cells” value is “lowered the production of HSV-2”. Besides, in [16], the “Initial screening: rescue of EV1-infected cells” value is “rescued cells from virus-mediated death” and the “SI (CC50/EC50)” value stood at 25. Further, the 50% effective concentration (EC50) in [17] was found to be 0.12 ± 0.01 µM. In data set [18], the viability at 24 h, 0.01 μM was 81%; the viability at 24 h, 0.02 μM came to 77%; the viability at 24 h, 0.05 μM worked out at 78%; the viability at 24 h, 0.15 μM was found to be 81%. The viability at 24 h, 0.44 μM in data set [18] amounted to 77%. In data set [19], the EC50 was determined as 0.04 ± 0.01 µM. Also, the “Initial screening: HMPV-mediated GFP expression” value in data set [20] is given as “lowered GFP expression without detectable cytotoxicity”.
The compound `CC[C@H]1CN2CCc3cc(OC)c(OC)cc3[C@@H]2C[C@@H]1C[C@H]1NCCc2cc(OC)c(OC)cc21` [Emetine] gave a CC50 in data set [1] greater than 30 µM. Moreover, the “Initial screening: FLUAV-mediated GFP expression” value in data set [8] is “lowered GFP expression without detectable cytotoxicity”. For the same compound, the concentration giving a half-maximal response (EC50) in [2] is 0.03 ± 0.01 µM. Besides, in data set [9], the viability at 0.01 µM amounted to 50%, the viability at 0.02 µM was 51%, the viability at 0.05 µM is 66% and the viability at 0.15 µM amounted to 68%. Also, the viability at 0.44 µM in data set [9] is 76%. In addition, in data set [10], the EC50 was 0.12 ± 0.03 µM. In data set [3], the “Initial screening: rescue of HSV-2-infected cells” value is given as “rescued cells from virus-mediated death” and the “SI (CC50/EC50)” value turned out to be 37. In data set [11], the EC50 amounted to 0.14 ± 0.05 µM. In data set [12], the “EV1 production in RPE cells” value is recorded as “lowered the production of EV1”. Moreover, the EC50 in data set [13] came to 0.13 ± 0.05 µM. Further, the half-maximal effective concentration (EC50) in data set [14] was determined as 0.43 ± 0.1 µM. In [15], the “RVFV-mediated RFP expression” value was “inhibited RVFV-mediated RFP expression at non-cytotoxic concentrations”. Besides, the “HSV-2 production in RPE cells” value in data set [4] is listed as “lowered the production of HSV-2”. Further, in [16], the “Initial screening: rescue of EV1-infected cells” value is recorded as “rescued cells from virus-mediated death”. In data set [17], the EC50 came to 0.12 ± 0.04 µM. Moreover, in data set [18], the viability at 24 h, 0.01 μM stood at 72%; the viability at 24 h, 0.02 μM is 80%; the viability at 24 h, 0.05 μM worked out at 76%; the viability at 24 h, 0.15 μM was found to be 76%. In data set [18], the viability at 24 h, 0.44 μM came to 80%. For the same compound, in data set [19], the EC50 came to 0.1 ± 0.02 µM. In data set [20], the “Initial screening: HMPV-mediated GFP expression” value is listed as “lowered GFP expression without detectable cytotoxicity” and the “SI (CC50/EC50)” value came out at 10.
With `Cc1ccc(C(=O)Nc2ccc(S(=O)(=O)O)c3cc(S(=O)(=O)O)cc(S(=O)(=O)O)c23)cc1NC(=O)c1cccc(NC(=O)Nc2cccc(C(=O)Nc3cc(C(=O)Nc4ccc(S(=O)(=O)O)c5cc(S(=O)(=O)O)cc(S(=O)(=O)O)c45)ccc3C)c2)c1` [Suramin], the “SI (CC50/EC50)” value in [5] and in [5] (listed as suramin) was greater than 375 each time. Further, the EC50 in data set [6] came to 0.08 ± 0.03 µM. The CC50 at 24 h in [7] is greater than 30 µM.
For the compound `COC(=O)C[C@](O)(CCCC(C)(C)O)C(=O)O[C@@H]1C(OC)=C[C@]23CCCN2CCc2cc4c(cc2[C@H]13)OCO4` [Homoharringtonine], the CC50 in [1] was greater than 30 µM. Besides, in data set [12], the “EV1 production in RPE cells” value is on record as “lowered the production of EV1”. Further, in [16], the “Initial screening: rescue of EV1-infected cells” value is listed as “rescued cells from virus-mediated death”. For the same compound, the EC50 in data set [17] was found to be 0.14 ± 0.03 µM.
Turning to `Nc1nc(O)c2ncn(COC(CO)CO)c2n1` [Ganciclovir], the CC50 in data set [1] is greater than 30 µM. In addition, the half-maximal effective concentration (EC50) in data set [2] was found to be 0.04 ± 0.01 µM. The “Initial screening: rescue of HSV-2-infected cells” value in [3] is “rescued cells from virus-mediated death”. Moreover, the “HSV-2 production in RPE cells” value in data set [4] is reported as “lowered the production of HSV-2”.
